According to patent US20090253671A1, “TRICYCLIC DERIVATIVES OF AZETIDINE AND PYRROLE WITH ANTIBACTERIAL ACTIVITY” (ASTRAZENECA AB, priority 2005, published 2009):
In brackets after ≈: the same amount, converted by molar mass.

Experiments:
Test in all cases: Bacterial susceptibility testing in liquid media (MIC)
Format in all cases: cell-based
HIN446 = settings: strain HIN446; lowest concentration reducing growth by 80% or more, 37 degrees C., 24 hrs
Method: (§1) Compounds were tested for antimicrobial activity by susceptibility testing in liquid media. Compounds were dissolved in dimethylsulfoxide and tested in 10 doubling dilutions in the susceptibility assays. The organisms used in the assay were grown overnight on suitable agar media and then suspended in a liquid medium appropriate for the growth of the organism. The suspension was a 0.5 McFarland and a further 1 in 10 dilution was made into the same liquid medium to prepare the final organism suspension in 100 μL. Plates were incubated under appropriate conditions at 37 degrees C. for 24 hrs prior to reading. The Minimum Inhibitory Concentration was determined as the lowest drug concentration able to reduce growth by 80% or more.

SAU516 = settings: strain SAU516; lowest concentration reducing growth by 80% or more, 37 degrees C., 24 hrs
Method: as §1

Streptococcus pneumoniae = settings: lowest concentration reducing growth by 80% or more, 37 degrees C., 24 hrs; for MIC SPN548: strain SPN548
Method: as §1

Row | Compound | MIC HIN446 (HIN446) [µg/mL] | MIC SAU516 (SAU516) [µg/mL] | MIC SPN548 (Streptococcus pneumoniae) [µg/mL] | MIC (Streptococcus pneumoniae; against Streptococcus pneumoniae) [µg/mL]
1 | CONC(=O)c1cnc(N2CC(NC(=O)c3[nH]c(C)c(Cl)c3Cl)C2)s1 [Example 8, 2-(3-{[(3,4-Dichloro-5-methyl-1H-pyrrol-2-yl)carbonyl]amino}azetidin-1-yl)-N-methoxy-1,3-thiazole-5-carboxamide] | 8 (≈ 19.8 µM) | 8 (≈ 19.8 µM) | 1 (≈ 2.47 µM) | 
2 | CONC(=O)c1cc(N2CC(NC(=O)c3[nH]c(C)c(Cl)c3Cl)C2)nc(Cl)n1 [Example 9, 2-Chloro-6-(3-{[(3,4-dichloro-5-methyl-1H-pyrrol-2-yl)carbonyl]amino}azetidin-1-yl)-N-methoxypyrimidine-4-carboxamide] | 4 (≈ 9.22 µM) | 2 (≈ 4.61 µM) | 2 (≈ 4.61 µM) | 2 (≈ 4.61 µM)
3 | Cc1nc(N2CC(NC(=O)c3[nH]c(C)c(Cl)c3Cl)C2)sc1C(=O)O [Example 5, 2-(3-{[(3,4-Dichloro-5-methyl-1H-pyrrol-2-yl)carbonyl]amino}azetidin-1-yl)-4-methyl-1,3-thiazole-5-carboxylic acid] | 0.5 (≈ 1.28 µM) | 4 (≈ 10.3 µM) | 0.5 (≈ 1.28 µM) | 
4 | Cc1[nH]c(C(=O)NC2CN(c3ncc(C(=O)O)s3)C2)c(Cl)c1Cl [Example 4, 2-(3-{[(3,4-Dichloro-5-methyl-1H-pyrrol-2-yl)carbonyl]amino}azetidin-1-yl)-1,3-thiazole-5-carboxylic acid] | 2 (≈ 5.33 µM) | 32 (≈ 85.3 µM) | 4 (≈ 10.7 µM) | 
